Measurements: the CheMixHub viscosity set
± gives the uncertainty stated by the source.

Test: xn = mol fraction of the nth substance listed

C1CC[C@H]2CCCC[C@@H]2C1 + O=C1CCCCC1
viscosity [mPa·s], 101.3 kPa
Settings | 293.15 K | 303.15 K
x2 = 0.05 | 2.114 ± 0.032 | 1.758 ± 0.026
x2 = 0.15 | 2.103 ± 0.03 | 1.744 ± 0.025
x2 = 0.2415 | 2.105 ± 0.029 | 1.737 ± 0.024
x2 = 0.3447 | 2.119 ± 0.028 | 1.737 ± 0.024
x2 = 0.4511 | 2.147 ± 0.028 | 1.744 ± 0.023
x2 = 0.5088 | 2.168 ± 0.027 | 1.75 ± 0.022
x2 = 0.6731 | 2.253 ± 0.027 | 1.784 ± 0.022
x2 = 0.6779 | 2.256 ± 0.027 | 1.785 ± 0.022
x2 = 0.7761 | 2.326 ± 0.027 | 1.815 ± 0.022
x2 = 0.8609 | 2.397 ± 0.028 | 1.848 ± 0.022
x2 = 0.9315 | 2.466 ± 0.028 | 1.88 ± 0.022

CCCOCCO + O=C1CCCN1
298.15 K, 101 kPa
Settings | viscosity [mPa·s]
x1 = 0.0058 | 13.97 ± 0.14
x1 = 0.015 | 13.55 ± 0.14
x1 = 0.035 | 12.83 ± 0.13
x1 = 0.0681 | 11.7 ± 0.12
x1 = 0.1013 | 10.72 ± 0.12
x1 = 0.1517 | 9.453 ± 0.1
x1 = 0.2214 | 8.048 ± 0.092
x1 = 0.2526 | 7.522 ± 0.088
x1 = 0.3008 | 6.831 ± 0.082
x1 = 0.3725 | 5.947 ± 0.074
x1 = 0.3786 | 5.895 ± 0.073
x1 = 0.4257 | 5.419 ± 0.069
x1 = 0.4698 | 5.028 ± 0.066
x1 = 0.5219 | 4.651 ± 0.062
x1 = 0.5519 | 4.44 ± 0.06
x1 = 0.6236 | 3.983 ± 0.054
x1 = 0.6987 | 3.576 ± 0.05
x1 = 0.7597 | 3.317 ± 0.047
x1 = 0.8327 | 2.977 ± 0.043
x1 = 0.8764 | 2.801 ± 0.041
x1 = 0.9045 | 2.695 ± 0.04
x1 = 0.9327 | 2.592 ± 0.039
x1 = 0.9694 | 2.473 ± 0.037
x2 = 0.0135 | 2.409 ± 0.036

CCCOCCO + O=S1(=O)CCCC1
303.15 K, 101 kPa
Settings | viscosity [mPa·s]
x2 = 0.0493 | 1.842 ± 0.014
x2 = 0.1029 | 1.682 ± 0.014
x2 = 0.1508 | 1.659 ± 0.014
x2 = 0.1991 | 1.748 ± 0.015
x2 = 0.2989 | 2.284 ± 0.02
x2 = 0.3489 | 2.685 ± 0.024
x2 = 0.3998 | 3.16 ± 0.028
x2 = 0.4993 | 4.193 ± 0.039
x2 = 0.5988 | 5.262 ± 0.051
x2 = 0.7002 | 6.392 ± 0.064
x2 = 0.8 | 7.572 ± 0.078
x2 = 0.9012 | 8.861 ± 0.094
x2 = 0.9504 | 9.498 ± 0.1

CCCOCCO + O=[N+]([O-])c1ccccc1
298.15 K, 101 kPa
Settings | viscosity [mPa·s]
x2 = 0.0509 | 2.336 ± 0.018
x2 = 0.1085 | 2.326 ± 0.018
x2 = 0.2052 | 2.316 ± 0.018
x2 = 0.3224 | 2.304 ± 0.017
x2 = 0.3978 | 2.292 ± 0.017
x2 = 0.4501 | 2.279 ± 0.017
x2 = 0.5017 | 2.262 ± 0.017
x2 = 0.5513 | 2.241 ± 0.017
x2 = 0.6026 | 2.216 ± 0.017
x2 = 0.6998 | 2.154 ± 0.016
x2 = 0.8045 | 2.066 ± 0.016
x2 = 0.9028 | 1.957 ± 0.015
x2 = 0.9525 | 1.888 ± 0.014

C[N+](C)(C)C.NCC(=O)[O-] + OCC(O)CO
303 K, 101 kPa
Settings | viscosity [mPa·s]
x1 = 0.065 | 397.5 ± 28
x1 = 0.13 | 390.8 ± 27
x1 = 0.21 | 380.1 ± 26
x1 = 0.29 | 369.3 ± 24
x1 = 0.48 | 346.5 ± 22
x1 = 0.71 | 327.7 ± 20

C[N+](C)(C)C.NCC(=O)[O-] + OCCO
303 K, 101 kPa
Settings | viscosity [mPa·s]
x1 = 0.044 | 46.5 ± 1.7
x1 = 0.095 | 75.2 ± 3
x1 = 0.15 | 103.9 ± 4.4
x1 = 0.22 | 138 ± 6.3
x1 = 0.39 | 185.9 ± 9.3
x1 = 0.63 | 251.5 ± 14

CCCOCCO + OCCOCCO
101 kPa
Settings | viscosity [mPa·s]
293.15 K, x1 = 0.0522 | 34.91 ± 0.39
293.15 K, x1 = 0.1049 | 31.33 ± 0.36
293.15 K, x1 = 0.2035 | 25.38 ± 0.3
293.15 K, x1 = 0.2926 | 20.65 ± 0.24
293.15 K, x1 = 0.3996 | 15.84 ± 0.18
293.15 K, x1 = 0.4555 | 13.73 ± 0.15
293.15 K, x1 = 0.4975 | 12.32 ± 0.13
293.15 K, x1 = 0.5488 | 10.8 ± 0.11
293.15 K, x1 = 0.5924 | 9.666 ± 0.097
293.15 K, x1 = 0.7043 | 7.291 ± 0.076
293.15 K, x1 = 0.7921 | 5.699 ± 0.058
293.15 K, x1 = 0.9015 | 3.905 ± 0.04
293.15 K, x1 = 0.9536 | 3.147 ± 0.031
298.15 K, x1 = 0.053 | 26.82 ± 0.34
298.15 K, x1 = 0.1014 | 24.15 ± 0.31
298.15 K, x1 = 0.1985 | 19.48 ± 0.26
298.15 K, x1 = 0.3104 | 15.16 ± 0.2
298.15 K, x1 = 0.4057 | 12.25 ± 0.16
298.15 K, x1 = 0.4511 | 11.07 ± 0.14
298.15 K, x1 = 0.4975 | 9.977 ± 0.12
298.15 K, x1 = 0.5511 | 8.842 ± 0.11
298.15 K, x1 = 0.6049 | 7.816 ± 0.095
298.15 K, x1 = 0.6981 | 6.239 ± 0.073
298.15 K, x1 = 0.8017 | 4.717 ± 0.056
298.15 K, x1 = 0.89 | 3.562 ± 0.037
298.15 K, x1 = 0.9483 | 2.89 ± 0.03
303.15 K, x1 = 0.0608 | 19.27 ± 0.31
303.15 K, x1 = 0.1099 | 17.35 ± 0.28
303.15 K, x1 = 0.1927 | 14.48 ± 0.22
303.15 K, x1 = 0.3017 | 11.38 ± 0.17
303.15 K, x1 = 0.3982 | 9.174 ± 0.14
303.15 K, x1 = 0.4498 | 8.171 ± 0.13
303.15 K, x1 = 0.4916 | 7.433 ± 0.12
303.15 K, x1 = 0.5511 | 6.487 ± 0.11
303.15 K, x1 = 0.6073 | 5.701 ± 0.093
303.15 K, x1 = 0.7083 | 4.5 ± 0.073
303.15 K, x1 = 0.7941 | 3.671 ± 0.052
303.15 K, x1 = 0.9072 | 2.776 ± 0.036
303.15 K, x1 = 0.9353 | 2.579 ± 0.028

CCCOCCO + OCCOCCOCCO
101 kPa
Settings | viscosity [mPa·s]
293.15 K, x1 = 0.0477 | 37.18 ± 0.36
293.15 K, x1 = 0.1028 | 32.98 ± 0.32
293.15 K, x1 = 0.2026 | 26.12 ± 0.26
293.15 K, x1 = 0.3116 | 19.86 ± 0.19
293.15 K, x1 = 0.397 | 15.84 ± 0.14
293.15 K, x1 = 0.4561 | 13.47 ± 0.12
293.15 K, x1 = 0.4963 | 12.06 ± 0.11
293.15 K, x1 = 0.549 | 10.39 ± 0.093
293.15 K, x1 = 0.5885 | 9.266 ± 0.082
293.15 K, x1 = 0.6941 | 6.794 ± 0.064
293.15 K, x1 = 0.8011 | 4.892 ± 0.047
293.15 K, x1 = 0.9015 | 3.544 ± 0.033
293.15 K, x1 = 0.9316 | 3.208 ± 0.029
298.15 K, x1 = 0.0552 | 30.77 ± 0.3
298.15 K, x1 = 0.1173 | 26.96 ± 0.27
298.15 K, x1 = 0.2033 | 22.23 ± 0.21
298.15 K, x1 = 0.3039 | 17.54 ± 0.16
298.15 K, x1 = 0.4049 | 13.68 ± 0.12
298.15 K, x1 = 0.4555 | 12.02 ± 0.11
298.15 K, x1 = 0.5186 | 10.2 ± 0.092
298.15 K, x1 = 0.5413 | 9.595 ± 0.084
298.15 K, x1 = 0.591 | 8.373 ± 0.073
298.15 K, x1 = 0.6905 | 6.309 ± 0.055
298.15 K, x1 = 0.7968 | 4.592 ± 0.041
298.15 K, x1 = 0.8962 | 3.38 ± 0.031
298.15 K, x1 = 0.9323 | 3.003 ± 0.028
303.15 K, x1 = 0.0529 | 26.52 ± 0.26
303.15 K, x1 = 0.1142 | 23.47 ± 0.22
303.15 K, x1 = 0.2041 | 19.36 ± 0.18
303.15 K, x1 = 0.2979 | 15.66 ± 0.14
303.15 K, x1 = 0.4027 | 12.28 ± 0.11
303.15 K, x1 = 0.4522 | 10.91 ± 0.097
303.15 K, x1 = 0.4952 | 9.838 ± 0.085
303.15 K, x1 = 0.5507 | 8.582 ± 0.075
303.15 K, x1 = 0.5939 | 7.697 ± 0.066
303.15 K, x1 = 0.6941 | 5.899 ± 0.051
303.15 K, x1 = 0.7987 | 4.346 ± 0.038
303.15 K, x1 = 0.9027 | 3.083 ± 0.028
303.15 K, x1 = 0.9431 | 2.664 ± 0.025
